Consider 18 compounds from ChEMBL document CHEMBL1275270, “Antioxidant activity of unexplored indole derivatives: synthesis and screening” (Eur J Med Chem, 2010).

What all share (type): functional
Assay [1] in a line: Antioxidant activity assessed as superoxide radical scavenging activity by NBT reduction assay.
Assay [2] can be described thus: Antioxidant activity assessed as inhibition of H2O2-induced oxidation of lucigenin.
Assay [3] is described as follows: Antioxidant activity assessed as trolox equivalent of peroxyl radical scavenging activity by ORAC assay.
The nature of assay [4]: Antioxidant activity assessed as inhibition of HOCl-induced oxidation of DHR by rhodamine 123 staining.
Assay [5] can be described thus: Antioxidant activity assessed as inhibition of singlet oxygen-induced oxidation of DHR by rhodamine 123 staining.
Assay [6] is described as follows: Antioxidant activity assessed as inhibition of nitric oxide-induced oxidation of non-fluorescent DAF-2 by fluorescence assay.
The nature of assay [7]: Antioxidant activity assessed as inhibition of peroxynitrite anion-induced oxidation of non-fluorescent DHR by rhodamine 123 staining in absence of NaHCO3.
Assay [8] is described as follows: Antioxidant activity assessed as inhibition of peroxynitrite anion-induced oxidation of non-fluorescent DHR by rhodamine 123 staining in presence of NaHCO3.

Active and inactive are the calls of the source. The calls are words filed in the database; no cut-off is given here.

Usually IC50 stands for the concentration that gives 50% inhibition. As to `N[C@@H](Cc1c[nH]c2ccccc12)C(=O)O` [TRYPTOPHAN], the outcome in assay [1] was inactive. The inhibition entry in assay [2] is “inactive”. Besides, in assay [3], the fold change (FC) came out at 2.74. Further, the half-inhibitory concentration (IC50) was found to be 3.5 µM in assay [4]; 992 µM in assay [5] (read-out: IC50); 1150 µM in assay [6] (read-out: IC50); 31.9 µM in assay [7] (read-out: IC50); 19.2 µM in assay [8].

Take `COC(=O)[C@@H](N)Cc1c[nH]c2ccccc12` [TRYPTOPHAN METHYL ESTER]: the outcome in assay [1] was inactive. Besides, in assay [2], the inhibition result is “inactive”. Also, the fold change (FC) in assay [3] amounted to 2.6. The IC50 in assay [4] was 9.6 µM; in assay [5] (read-out: IC50) it was 1040 µM; in assay [6] it was “Not Active”; in assay [7] (read-out: IC50), 47.8 µM; in assay [8], 13.1 µM.

Take `CC(C)=CCc1[nH]c2ccccc2c1CC(N)C(=O)O` (stereo not given): in assay [1], the result was inactive. For the same compound, the inhibition result in assay [2] is “inactive”. The fold change (FC) in assay [3] stood at 0.48. Besides, the IC50 in assay [4] was 4.56 µM.

On to `COC(=O)[C@H](Cc1cn(C/C=C/c2ccccc2)c2ccccc12)NC(C)=O`, for which the result in assay [1] was inactive. Further, the inhibition entry in assay [2] was “inactive”. In addition, the fold change (FC) in assay [3] was found to be 0.44. In addition, the IC50 in assay [4] is 67.7 µM; in assay [5] (read-out: IC50), 971 µM; in assay [6] it was “Not Active”; in assay [7] (read-out: IC50), 218 µM; in assay [8], 36.3 µM.

As to `COC(=O)[C@H](Cc1cn(CCC(C)C)c2ccccc12)NC(C)=O`, the outcome in assay [1] was inactive. For the same compound, in assay [2], the inhibition result was “inactive”. Also, the fold change (FC) in assay [3] came out at 0.28. Also, the IC50 is 8.35 µM in assay [4]; 718 µM in assay [5] (read-out: IC50); “Not Active” in assay [6]; 548 µM in assay [7] (read-out: IC50); 315 µM in assay [8].

`CC(C)=CCn1cc(CCN2C(=O)c3ccccc3C2=O)c2ccccc21`: in assay [1], the result was inactive. The inhibition result in assay [2] was “inactive”. For the same compound, the “fold change (FC)” value in assay [3] is “inactive”. Moreover, the IC50 in assay [4] was 6.34 µM; in assay [5] it was “Not Active”; in assay [6], “Not Active”; in assay [7] it was “Not Active”; in assay [8], 192 µM.

`COC(=O)[C@H](Cc1c[nH]c2ccccc12)NC(C)=O`: the outcome in assay [1] was inactive. Further, in assay [2], the inhibition entry is “inactive”. Also, in assay [3], the fold change (FC) came out at 1.21. Besides, the IC50 in assay [4] was 50 µM; in assay [5] (read-out: IC50) it was 1560 µM; in assay [6] it was “Not Active”; in assay [7] (read-out: IC50), 223 µM; in assay [8] it was 22.9 µM.

On to `COC(=O)C(Cc1cn(CC=C(C)C)c2ccccc12)N1C(=O)c2ccccc2C1=O` (stereo not given), for which the result in assay [1] was inactive. In addition, the inhibition entry in assay [2] was “inactive”. Also, the fold change (FC) in assay [3] came to 0.36. For the same compound, the IC50 was 34.3 µM in assay [4]; 2860 µM in assay [5] (read-out: IC50); “Not Active” in assay [6]; “Not Active” in assay [7]; 241 µM in assay [8].

In the case of `O=C1c2ccccc2C(=O)N1CCc1c[nH]c2ccccc12`, the outcome in assay [1] was inactive. Moreover, the inhibition entry in assay [2] was “inactive”. Further, the fold change (FC) in assay [3] amounted to 1.46. Also, the IC50 in assay [4] was 11.1 µM; in assay [5] it was “Not Active”; in assay [6], “Not Active”; in assay [7] (read-out: IC50), 93 µM; in assay [8], 40.9 µM.

With `COC(=O)C(Cc1c[nH]c2ccccc12)N1C(=O)c2ccccc2C1=O` (stereo not given), the outcome in assay [1] was inactive. Moreover, the inhibition entry in assay [2] was “inactive”. For the same compound, the fold change (FC) in assay [3] is 1.09. Further, the IC50 is 27.3 µM in assay [4]; 943 µM in assay [5] (read-out: IC50); “Not Active” in assay [6]; 208 µM in assay [7] (read-out: IC50); 29.5 µM in assay [8].

As for `NCCc1c[nH]c2ccccc12` [TRYPTAMINE], the outcome in assay [1] was inactive. The inhibition entry in assay [2] was “inactive”. The fold change (FC) in assay [3] stood at 1.86. Further, the IC50 in assay [4] was 6 µM; in assay [5] (read-out: IC50), 682 µM; in assay [6] (read-out: IC50) it was 672 µM; in assay [7] (read-out: IC50), 31.8 µM; in assay [8], 10.4 µM.

`CC(C)=CCn1cc(CCN)c2ccccc21`: in assay [1], the result was inactive. Further, the inhibition entry in assay [2] was “inactive”. In assay [3], the fold change (FC) came to 0.96. In addition, the IC50 in assay [4] stood at 26.2 µM; in assay [5] (read-out: IC50) it was 618 µM; in assay [6] (read-out: IC50), 1430 µM; in assay [7] (read-out: IC50), 905 µM; in assay [8] it was 234 µM.

As for `COC(=O)[C@H](Cc1cn(CCCc2ccccc2)c2ccccc12)NC(C)=O`, the outcome in assay [1] was inactive. Also, in assay [2], the inhibition entry is “inactive”. Further, the fold change (FC) in assay [3] was found to be 0.44. Also, the IC50 in assay [4] was 14.2 µM; in assay [5] (read-out: IC50) it was 506 µM; in assay [6] it was “Not Active”; in assay [7], “Not Active”; in assay [8], 142 µM.

Turning to `COC(=O)C(Cc1c(CCC(C)C)[nH]c2ccccc12)N1C(=O)c2ccccc2C1=O` (stereo not given), the outcome in assay [1] was inactive. For the same compound, in assay [2], the inhibition result is “inactive”. Further, the fold change (FC) in assay [3] is 0.97. The half-inhibitory concentration (IC50) in assay [4] was 3.75 µM; in assay [5] (read-out: IC50) it was 750 µM; in assay [6] it was “Not Active”; in assay [7], “Not Active”; in assay [8] it was 14 µM.

Turning to `COC(=O)C(Cc1c(CC=C(C)C)[nH]c2ccccc12)N1C(=O)c2ccccc2C1=O` (stereo not given), the result in assay [1] was inactive. The inhibition entry in assay [2] was “inactive”. Besides, the fold change (FC) in assay [3] is 0.45. Besides, the IC50 in assay [4] was 7.18 µM; in assay [5] (read-out: IC50) it was 2310 µM; in assay [6] (read-out: IC50), 239 µM; in assay [7] it was “Not Active”; in assay [8], 28.2 µM.

`COC(=O)[C@H](Cc1cn(CC=C(C)C)c2ccccc12)NC(C)=O`: the outcome in assay [1] was inactive. For the same compound, in assay [2], the inhibition result was “inactive”. For the same compound, the fold change (FC) in assay [3] was 0.21. In addition, the IC50 in assay [4] is 32.8 µM; in assay [5] (read-out: IC50) it was 777 µM; in assay [6] (read-out: IC50), 980 µM; in assay [7] (read-out: IC50), 545 µM; in assay [8] it was 162 µM.

As to `CC(C)=CCn1cc(CC(N)C(=O)O)c2ccccc21` (stereo not given), the outcome in assay [1] was inactive. The inhibition entry in assay [2] is “inactive”. Moreover, the fold change (FC) in assay [3] turned out to be 1.05. For the same compound, the IC50 came out at 4.13 µM in assay [4]; 841 µM in assay [5] (read-out: IC50); 208 µM in assay [6] (read-out: IC50); 94.7 µM in assay [7] (read-out: IC50); 42.4 µM in assay [8].

Take `CC(C)CCn1cc(CCN2C(=O)c3ccccc3C2=O)c2ccccc21`: in assay [1], the outcome was inactive. Besides, the inhibition result in assay [2] is “inactive”. Also, in assay [3], the “fold change (FC)” value was “inactive”. For the same compound, the IC50 in assay [4] is 10.6 µM; in assay [5] (read-out: IC50) it was 1030 µM; in assay [6] (read-out: IC50), 1530 µM; in assay [7], “Not Active”; in assay [8], 237 µM.
